From PMC5428521, “Identification of a Novel, Small Molecule Partial Agonist for the Cyclic AMP Sensor, EPAC1” (Scientific Reports, 2017)
Several values for one entry are separate records, joined by “and”; a condition that tells them apart may be missing. Equal values may be shown once.

Tests used:
[1] = target: T1, EPAC1 (amino acids 149–881) (Homo sapiens, UniProt O95398); test: In vitro GEF activity assay (MANT-GDP dissociation from Rap1), EPAC1; type: biochemical; settings: for AC50: AC50, GEF Activation (no cAMP), from kobs vs concentration
T1 construct: recombinant EPAC1 (amino acids 149–881); made in house; host or cells: bacteria
T1 sequence (O95398 149-881 isoform O95398-3): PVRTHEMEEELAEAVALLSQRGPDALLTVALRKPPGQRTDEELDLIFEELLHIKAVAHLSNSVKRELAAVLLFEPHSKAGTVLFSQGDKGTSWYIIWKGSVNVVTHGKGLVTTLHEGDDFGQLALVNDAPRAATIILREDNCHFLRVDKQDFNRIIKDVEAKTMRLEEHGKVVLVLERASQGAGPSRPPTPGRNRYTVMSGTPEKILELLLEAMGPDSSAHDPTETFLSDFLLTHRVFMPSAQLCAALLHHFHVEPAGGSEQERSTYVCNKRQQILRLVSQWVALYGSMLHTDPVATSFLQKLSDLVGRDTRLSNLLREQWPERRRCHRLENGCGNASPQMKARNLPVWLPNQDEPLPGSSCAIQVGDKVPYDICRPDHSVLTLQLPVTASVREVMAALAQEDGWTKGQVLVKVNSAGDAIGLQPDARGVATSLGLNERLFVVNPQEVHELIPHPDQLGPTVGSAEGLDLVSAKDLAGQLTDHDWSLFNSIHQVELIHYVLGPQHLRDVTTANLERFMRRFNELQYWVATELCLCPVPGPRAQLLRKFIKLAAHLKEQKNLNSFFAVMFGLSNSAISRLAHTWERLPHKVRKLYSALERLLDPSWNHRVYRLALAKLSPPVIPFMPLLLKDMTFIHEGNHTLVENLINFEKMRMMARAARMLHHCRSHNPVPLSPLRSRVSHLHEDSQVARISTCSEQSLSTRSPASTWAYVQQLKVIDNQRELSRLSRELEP
Protocol: For this, we used the well-characterised EPAC GEF activity assay. The assay is based on the EPAC-stimulated dissociation of fluorescent MANT-GDP from recombinant Rap1 in the presence of excess non-fluorescent nucleotide.
The data are fitted as single exponential decay with off-set (red lines) to obtain the rate constants kobs, as shown in (b).
EPAC1 and EPAC2 in vitro GEF activities were calculated as previously described. Briefly, recombinant EPAC1 (amino acids 149–881) or EPAC2 (amino acids 280–993) were incubated at 100 nM with recombinant Rap1 (200 nM) preloaded with the fluorescent GDP analogue 2′/3′-O-(N-Methylanthraniloyl)guanosine 5-diphosphate (MANT-GDP) in the presence of 20 μM GDP and then the fluorescence intensity was measured at 360/450 nm (ex/em) over time. […] AC50 or IC50 values were determined from the plots of kobs against the concentration of the agonist and antagonist, respectively Table 1.

EPAC2-CNB = target: T2, EPAC2-CNB (Mus musculus, UniProt Q9EQZ6); test: Ligand observed NMR (1D and waterLOGSY) with EPAC2-CNB; type: binding; settings: compound 50 µM, protein 2.5 µM
T2 construct: EPAC2-CNB (amino acids 304–453 of EPAC2); made in house; host or cells: BL-21 Escherichia coli (pGEX-6P-1)
T2 sequence (Q9EQZ6 304-453 isoform Q9EQZ6-3): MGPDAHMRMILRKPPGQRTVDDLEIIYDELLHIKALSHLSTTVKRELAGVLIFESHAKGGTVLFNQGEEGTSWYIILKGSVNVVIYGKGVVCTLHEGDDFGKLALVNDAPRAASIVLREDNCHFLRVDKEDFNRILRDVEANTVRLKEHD
From the text: Given that I942 seems to exert selective agonist properties against EPAC1, but not EPAC2, we next sought to validate whether our isolated ligands can interact with EPAC1 and EPAC2. Ligand observed nuclear magnetic resonance (NMR) is a valuable tool for the identification and validation of small molecule ligands. We therefore used one dimensional proton (1D) and water-ligand observed by gradient spectroscopy (waterLOGSY) NMR to confirm the ability of I942 and I178 to bind to the purified CNBs of EPAC1 and EPAC2, in comparison with the commercially available EPAC1 antagonist, ESI-09[32]. In order to assess ligand/CNB interaction, 1D and waterLOGSY experiments were performed on each compound (50 µM) in the presence or absence of 2.5 µM EPAC-CNB. In the absence of protein, each test compound produced a well-resolved 1D spectrum and a region of each spectrum was chosen to display distinctive spectral peaks originating from the ligand (Fig. 6). In the absence of protein, the corresponding waterLOGSY peaks were small, or absent, due to the negligible signal produced by saturation transfer from water to the freely tumbling small molecule. […] In waterLOGSY spectra, protein-mediated saturation transfer can only occur if the protein-ligand complex has a substantial lifetime. […]
(A) One dimensional proton (1D) and waterLOGSY (WL) spectra were performed on samples containing hit compound I942 (50 µM) in the absence and presence of EPAC1-CNB, EPAC2-CNB or GST alone, as indicated (2.5 µM). […] Interaction between compound and protein was assessed through comparison of the compound alone and protein-compound sample spectra. […]
All NMR spectra were recorded on a Bruker AVANCE IIIHD 600 spectrometer equipped with a TCI cryoprobe at 285 K. Test compounds were prepared in deuterated DMSO and diluted to given experimental concentrations in NMR buffer (20 mM Na2PO4, pH 7.0, 50 mM NaCl, 0.1% (w/v) NaN3, 5% (v/v) D2O) with a final DMSO concentration below 0.1%. […] One dimensional proton (1D) and waterLOGSY spectra were recorded for all compounds tested, using pulse sequences as previously described. […]

Compound	IC50 [1]	AC50 ([1]; absence of cAMP)	maximal induced activity, fold lower than that of cAMP ([1]; absence of cAMP)	NMR interaction (EPAC2-CNB)
Cc1ccc(S(=O)(=O)NC(=O)COc2ccc3ccccc3c2)c(C)c1 [I942, N-(2,4-dimethylbenzenesulfonyl)-2-(naphthalen-2-yloxy)acetamide]	~300 µM	50 µM and ~50 µM	around 10 fold	Strong, Specific Interaction
O=C(COc1ccc2ccccc2c1)NS(=O)(=O)c1ccccc1 [I178, N-(benzenesulfonyl)-2-(naphthalen-2-yloxy)acetamide]	~500 µM	200 µM and ~200 µM	–	Weak, specific interaction
